Read-outs that look alike come from different tables or passages of the source.

For one assay, the target named is T1, human RXFP3 (Homo sapiens, UniProt Q9NSD7).
T1 sequence (Q9NSD7 1-469): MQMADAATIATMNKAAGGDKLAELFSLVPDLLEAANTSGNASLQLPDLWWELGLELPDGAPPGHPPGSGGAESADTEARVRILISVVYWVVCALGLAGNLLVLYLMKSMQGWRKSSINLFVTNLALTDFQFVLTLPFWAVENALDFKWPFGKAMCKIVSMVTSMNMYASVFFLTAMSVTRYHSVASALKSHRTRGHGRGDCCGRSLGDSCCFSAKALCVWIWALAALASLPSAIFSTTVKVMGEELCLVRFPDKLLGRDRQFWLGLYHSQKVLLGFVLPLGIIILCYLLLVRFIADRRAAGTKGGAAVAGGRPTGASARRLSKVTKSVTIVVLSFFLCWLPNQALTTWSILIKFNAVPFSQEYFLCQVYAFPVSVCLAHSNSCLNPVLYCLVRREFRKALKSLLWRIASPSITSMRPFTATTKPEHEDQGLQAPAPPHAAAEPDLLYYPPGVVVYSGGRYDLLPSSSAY
Put plainly: RXFP3 cAMP accumulation assay (inhibition of relaxin-3 activity) in stable CHO human RXFP3 cells. In general terms: Changes in cAMP serve as a functional read-out for many G protein-coupled receptors.

For the next assay, the target named is T2, RXFP1 (Homo sapiens, UniProt Q9HBX9).
T2 sequence (Q9HBX9 1-757): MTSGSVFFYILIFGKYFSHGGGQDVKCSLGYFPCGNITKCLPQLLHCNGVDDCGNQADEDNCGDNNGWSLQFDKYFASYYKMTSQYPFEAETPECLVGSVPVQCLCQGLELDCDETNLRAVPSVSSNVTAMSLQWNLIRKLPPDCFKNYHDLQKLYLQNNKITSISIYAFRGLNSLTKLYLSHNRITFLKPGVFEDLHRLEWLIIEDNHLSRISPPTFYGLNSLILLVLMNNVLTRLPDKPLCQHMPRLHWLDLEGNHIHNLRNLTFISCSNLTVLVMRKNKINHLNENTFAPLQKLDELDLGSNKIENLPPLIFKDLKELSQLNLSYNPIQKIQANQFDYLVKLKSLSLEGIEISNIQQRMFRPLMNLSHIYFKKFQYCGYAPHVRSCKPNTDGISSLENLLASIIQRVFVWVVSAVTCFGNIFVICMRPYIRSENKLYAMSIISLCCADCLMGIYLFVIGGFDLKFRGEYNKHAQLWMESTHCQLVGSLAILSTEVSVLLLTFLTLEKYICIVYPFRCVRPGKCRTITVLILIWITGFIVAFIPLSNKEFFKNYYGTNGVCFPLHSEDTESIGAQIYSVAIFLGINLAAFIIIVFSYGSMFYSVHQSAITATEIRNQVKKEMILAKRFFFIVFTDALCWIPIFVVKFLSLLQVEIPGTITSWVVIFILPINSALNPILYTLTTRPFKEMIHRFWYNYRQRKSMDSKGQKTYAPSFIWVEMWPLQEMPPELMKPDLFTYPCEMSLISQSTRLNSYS
Put plainly: Activity at RXFP1 (selectivity). The format is cell-based. As to conditions: all concentrations tested up to 30 μM. The source says:
It is believed that these compounds represent the first series of small molecule RXFP3 antagonists to be described.

[1] abbreviates: IC50 (functional RXFP3 antagonist), inhibition of relaxin-3 activity, RXFP3-CHO cAMP assay.

Procedure for human RXFP3: The assay is based on the competition between a europium chelate-labeled cAMP tracer and unlabeled cAMP produced by cells. […] CHO human RXFP3 cells were cultured in F12 media supplemented with 10% FBS, 100 units/mL penicillin, 100 μg/mL streptomycin, and 400 μg/mL geneticin. Stimulation buffer containing 1×HBSS, 5 mM HEPES (pH 7.4), 0.1% BSA stabilizer, and 0.5 mM IBMX was prepared. A concentration response curve of each test compound was prepared at 4 times the desired final concentration in 4% DMSO/stimulation buffer, and 5 μL was added to the assay plate. […] Forskolin (1 μM) was prepared at 4 times the desired concentration in stimulation buffer, and 5 μL was added to the assay plate. Cells were lifted from flasks with versene and spun at 270 g for 5 min. The cell pellet was resuspended in stimulation buffer and 5000 cells (5 μL) were added to each well. After incubating for 30 min at room temperature, Eu cAMP tracer and uLIGHT-anticAMP working solutions were added per the manufacturer's instructions.

In the case of `O=C(Nc1ccc(-c2nc(-c3ccccc3)no2)cc1)C1CC(=O)N(Cc2ccccc2)C1` (stereo not shown) [RLX-2, 1-Benzyl-N-[4-(3-phenyl-1,2,4-oxadiazol-5-yl)phenyl]-5-oxopyrrolidine-3-carboxamide], at human RXFP3, the half-maximal inhibitory concentration (IC50) (in general, the concentration at which inhibition is half-maximal) worked out at 7530 ± 998 nM.

Take `Cc1ccc(-c2noc(-c3ccc(NC(=O)C4CC(=O)N(CCc5ccccc5)C4)cc3)n2)cc1` (stereo not shown) [RLX-4, N-{4-[3-(4-Methylphenyl)-1,2,4-oxadiazol-5-yl]phenyl}-5-oxo-1-(2-phenylethyl)pyrrolidine-3-carboxamide]: the IC50 against human RXFP3 was over 10000 nM. At human RXFP3, `Cc1ccc(-c2noc(-c3ccc(NC(=O)C4CC(=O)N(Cc5cccc(C)c5)C4)cc3)n2)cc1` (stereo not shown) [RLX-8, 1-[(3-Methylphenyl)methyl]-N-{4-[3-(4-methylphenyl)-1,2,4-oxadiazol-5-yl]phenyl}-5-oxopyrrolidine-3-carboxamide] registered an IC50 of over 10000 nM. The same measure, in the same setting: the value for `Cc1ccc(-c2noc(-c3ccc(NC(=O)C4CC(=O)N(Cc5ccccn5)C4)cc3)n2)cc1` (stereo not shown) [RLX-9, N-{4-[3-(4-Methylphenyl)-1,2,4-oxadiazol-5-yl]phenyl}-5-oxo-1-[(pyridin-2-yl)methyl]-pyrrolidine-3-carboxamide] was 4810 ± 682 nM.

On to `Cc1ccc(-c2noc(-c3ccc(NC(=O)C4CC(=O)N(Cc5cccnc5)C4)cc3)n2)cc1` (stereo not shown) [RLX-10, N-{4-[3-(4-Methylphenyl)-1,2,4-oxadiazol-5-yl]phenyl}-5-oxo-1-[(pyridin-3-yl)methyl]-pyrrolidine-3-carboxamide], for which the IC50 against human RXFP3 is 2350 ± 248 nM. In turn, `Cc1ccc(-c2noc(-c3ccc(NC(=O)C4CC(=O)N(C)C4)cc3)n2)cc1` (stereo not shown) [RLX-15, 1-Methyl-N-{4-[3-(4-methylphenyl)-1,2,4-oxadiazol-5-yl]phenyl}-5-oxopyrrolidine-3-carboxamide] showed an IC50 against human RXFP3 of 2720 ± 384 nM.

For `O=C(Nc1ccc(-c2nc(-c3ccccc3)no2)cc1)C1CC(=O)N(Cc2cccnc2)C1` (stereo not shown) [RLX-16, 5-Oxo-N-[4-(3-phenyl-1,2,4-oxadiazol-5-yl)phenyl]-1-[(pyridin-3-yl)methyl]-pyrrolidine-3-carboxamide], 6610 ± 909 nM corresponded to half-maximal inhibition on human RXFP3 (IC50). Still for that read-out and setting: to `Cc1cccc(-c2noc(-c3ccc(NC(=O)C4CC(=O)N(Cc5cccnc5)C4)cc3)n2)c1` (stereo not shown) [RLX-17, N-{4-[3-(3-Methylphenyl)-1,2,4-oxadiazol-5-yl]phenyl}-5-oxo-1-[(pyridin-3-yl)methyl]-pyrrolidine-3-carboxamide] belongs 5350 ± 1340 nM. In the case of `O=C(Nc1ccc(-c2nc(-c3cccc(F)c3)no2)cc1)C1CC(=O)N(Cc2cccnc2)C1` (stereo not shown) [RLX-19, N-{4-[3-(3-Fluorophenyl)-1,2,4-oxadiazol-5-yl]phenyl}-5-oxo-1-(3-pyridinylmethyl) pyrrolidine-3-carboxamide], the IC50 at human RXFP3 came to 1340 ± 226 nM; against human RXFP3 (setting [1]), 1300 nM.

For `O=C(Nc1ccc(-c2nc(-c3ccc(F)cc3)no2)cc1)C1CC(=O)N(Cc2cccnc2)C1` (stereo not shown) [RLX-20, N-{4-[3-(4-Fluorophenyl)-1,2,4-oxadiazol-5-yl]phenyl}-5-oxo-1-[(pyridin-3-yl)methyl]-pyrrolidine-3-carboxamide], the IC50 on human RXFP3 is 1910 ± 367 nM.

With `O=C(Nc1ccc(-c2nc(-c3ccc(C(F)(F)F)cc3)no2)cc1)C1CC(=O)N(Cc2cccnc2)C1` (stereo not shown) [RLX-21, 5-Oxo-1-[(pyridin-3-yl)methyl]-N-(4-{3-[4-(trifluoromethyl)phenyl]-1,2,4-oxadiazol-5-yl}phenyl)-pyrrolidine-3-carboxamide], at human RXFP3, the IC50 was found to be 2500 ± 97 nM. As to `COc1ccc(-c2noc(-c3ccc(NC(=O)C4CC(=O)N(Cc5cccnc5)C4)cc3)n2)cc1` (stereo not shown) [RLX-22, N-{4-[3-(4-Methoxyphenyl)-1,2,4-oxadiazol-5-yl]phenyl}-5-oxo-1-[(pyridin-3-yl)methyl]-pyrrolidine-3-carboxamide], at human RXFP3 (inhibition of relaxin-3 (0.6 nM) activity, forskolin-stimulated cAMP accumulation, CHO human RXFP3 cells, mean ± SEM of at least three independent experiments in duplicate), the “IC50 (nM)” value is “Not active”.

In the case of `O=C(Nc1ccc(-c2nc(-c3ccc(Cl)cc3)no2)cc1)C1CC(=O)N(Cc2cccnc2)C1` (stereo not shown) [RLX-24, N-{4-[3-(4-Chlorophenyl)-1,2,4-oxadiazol-5-yl]phenyl}-5-oxo-1-[(pyridin-3-yl)methyl]-pyrrolidine-3-carboxamide], the IC50 at human RXFP3 worked out at 1250 ± 219 nM; on human RXFP3 (setting [1]), 1200 nM. The compound `O=C(Nc1ccc(-c2nc(-c3ccc(Br)cc3)no2)cc1)C1CC(=O)N(Cc2cccnc2)C1` (stereo not shown) [RLX-25, N-{4-[3-(4-Bromophenyl)-1,2,4-oxadiazol-5-yl]phenyl}-5-oxo-1-[(pyridin-3-yl)methyl]-pyrrolidine-3-carboxamide] registered an IC50 at human RXFP3 of 2890 ± 193 nM. The same measure, in the same setting: to `O=C(Nc1ccc(-c2nc(-c3ccc(C(F)(F)F)cc3)no2)cc1)C1CC(=O)N(Cc2ccco2)C1` (stereo not shown) [RLX-32, 1-[(Furan-2-yl)methyl]-5-oxo-N-(4-{3-[4-(trifluoromethyl)phenyl]-1,2,4-oxadiazol-5-yl}phenyl)pyrrolidine-3-carboxamide] belongs 6680 ± 349 nM. Turning to `O=C(Nc1ccc(-c2nc(-c3ccc(Cl)cc3)no2)cc1)C1CC(=O)N(Cc2ccco2)C1` (stereo not shown) [RLX-33, N-{4-[3-(4-Chlorophenyl)-1,2,4-oxadiazol-5-yl]phenyl}-1-[(furan-2-yl)methyl]-5-oxopyrrolidine-3-carboxamide], the IC50 amounted to 2880 ± 321 nM at human RXFP3 and 2900 nM against human RXFP3 (setting [1]). The “activity at RXFP1” value on RXFP1 is “no activity”.

In turn, `Cc1ccc(-c2noc(-c3ccc(NC(=O)C4CCN(Cc5ccccc5)C4)cc3)n2)cc1` (stereo not shown) [RLX-37, 1-Benyl-N-{4-[3-(4-methylphenyl)-1,2,4-oxadiazol-5-yl]phenyl}-pyrrolidine-3-carboxamide] showed a 50% inhibitory concentration (IC50) at human RXFP3 of over 10000 nM.

`Cc1ccc(-c2noc(-c3ccc(NC(=O)CCNCc4ccccc4)cc3)n2)cc1` [RLX-39, 3-[Benzylamino]-N-{4-[3-(4-methylphenyl)-1,2,4-oxadiazol-5-yl]phenyl}propanamide] returned an IC50 at human RXFP3 of 5590 ± 623 nM.
